Source: US9567301B2, “Pyrrol-1-yl benzoic acid derivatives useful as myc inhibitors” (Whitehead Institute for Biomedical Research, priority 2012, dated 2017)
Where two headings read alike, the source gives them in different places.

Assays:
H2171 cells = assay: Cell viability assay (ATPlite), H2171; format: cell-based, human; details: cell viability, three days, ATPlite, NA: inactive under assay conditions
Summary of the method: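 Cells seeded at 60,000 cells/mL and dosed immediately by pin transfer in 10-point quadruplicate dose response from DMSO stocks. After three days at 37 °C, viability was read by ATPlite luminescence after 15 min at room temperature.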

MM1S cells = assay: Cell viability assay (ATPlite), MM1S; format: cell-based, human; details: cell viability, three days, ATPlite, NA: inactive under assay conditions
Experimental: (§1) This assay was used for the H2171 and MM1S cell data shown in Table 2, and for the Jurkat (an immortalized line of human T lymphocyte cells), Ly1 (OCI-Ly1 human non-Hodgkin lymphoma cell line), Ly4 (OCI-Ly4 human non-Hodgkin lymphoma cell line), H2172 (NCI-H2172 human non-small cell lung cancer cell line), and CA-46 (a human Burkitt's lymphoma cell line) cell data shown in Table 3 and FIG. 12. Cells were counted and adjusted to 60,000 cells/mL. Using a Biotek EL406, 50 μL of cells are media were distributed into 384 well white plates from Thermo. Immediately after plating, compound in DMSO was distributed to plates. For large plate sets, cells were returned to 37° C. incubator while not in use.
(§2) Compounds were added to plates using a 100 nL 384 well pin transfer manifold on a Janus workstation. Stocks were arrayed in 10 point quadruplicate dose response in DMSO stock in 384 well Greiner compound plates. After addition of compound, plates were incubated for three days in a 37° C. incubator.
(§3) Cell viability was read out using ATPlite from Perkin Elmer. Plates were removed from the incubator and brought to room temperature prior to use. Lyophilized powder was resuspended in lysis buffer and diluted 1:2 with DI water. 25 μL of this solution was added to each well using the Biotek liquid handler. Plates were sealed with adherent aluminum seals prior to vortexing and spinning down at 1000 g for 1 minute. Plates were incubated for 15 minutes at room temperature before signal was read on an Envision Plate Reader.

Jurkat cells = assay: Cell viability assay (ATPlite), Jurkat; format: cell-based, human; details: class symbols, NA: not active under assay conditions
Experimental: as §1, §2, §3

c-Myc/Max/Ebox DNA = c-Myc/Max/Ebox DNA (Homo sapiens, UniProt P01106); assay: c-Myc/Max/Ebox DNA AlphaScreen assay; format: binding; design: An exemplary assay uses full-length human c-Myc and Max proteins; his6 (cleaved yes); made in house
Summary of the method: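 Free c-Myc (25 nM), made by thrombin removal of the His6 tag, is pre-mixed with biotin-Ebox DNA (10 nM) and Ni acceptor beads before compound addition, then His6-Max (1.25 nM) and streptavidin donor beads are added. Buffer is HEPES pH 8.0 with BSA, Tween20, glycogen and DTT. Read after 2 h, excitation 680 nm, emission 520–620 nm.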

MITF/MITF/Ebox DNA = biological target: T1, MITF/MITF/Ebox DNA (Homo sapiens, UniProt O75030); assay: Gelshift assay, MITF/MITF/Ebox DNA complex formation; format: binding; details: relative to DMSO at 2.5 µM (FIG. 9)
T1 sequence (O75030 1-526): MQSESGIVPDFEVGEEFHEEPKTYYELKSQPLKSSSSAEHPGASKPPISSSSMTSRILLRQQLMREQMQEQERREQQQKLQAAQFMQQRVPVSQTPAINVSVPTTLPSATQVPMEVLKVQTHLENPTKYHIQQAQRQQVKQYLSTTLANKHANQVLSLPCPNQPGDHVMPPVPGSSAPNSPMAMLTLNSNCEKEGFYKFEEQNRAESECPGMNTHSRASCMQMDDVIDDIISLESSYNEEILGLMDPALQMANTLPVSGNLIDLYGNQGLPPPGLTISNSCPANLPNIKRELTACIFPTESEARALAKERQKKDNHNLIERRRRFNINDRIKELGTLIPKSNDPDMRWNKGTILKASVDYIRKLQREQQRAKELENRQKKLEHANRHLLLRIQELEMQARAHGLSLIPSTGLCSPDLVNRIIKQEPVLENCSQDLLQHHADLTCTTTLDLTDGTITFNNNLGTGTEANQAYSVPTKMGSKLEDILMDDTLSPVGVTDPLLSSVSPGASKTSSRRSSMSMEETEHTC
Experimental: Compounds tested at 2.5 μM for their inhibitory activity against c-Myc/Max/Ebox DNA, Max/Max/Ebox DNA and MITF/MITF/Ebox DNA complex formation using gelshift assays.
AlphaScreen hits can be validated using orthogonal biochemical assays such as a gelshift assay (also called an electrophoretic mobility shift assay) with purified components or cellular lysates. FIG. 5 (left) illustrates how the AlphaScreen hit 63 was validated using a gelshift assay with purified c-Myc, Max and Ebox DNA. […] Compounds and analogs were then examined for potency and selectivity against structurally similar transcription factor:DNA complexes, such as Max/Max/Ebox DNA and MITF/MITF/Ebox DNA. Data in FIG. 9 show how analogs can be tested for potency against structurally similar transcription factors and how medicinal chemistry optimization can drive potency and selectivity against different transcription factor:DNA complexes. […] The selectivity among structurally similar transcription factors can also provide insights into compound mechanism of action. […] Cellular assays can compliment the biochemical analyses to measure the cellular potency of compounds to induce cellular phenotypes expected as a result of loss of transcription factor function. This includes gene expression analysis, chromatin immunoprecipitation (ChIP) analysis, cellular proliferation analysis and cell state analysis. Gene expression analysis can be performed using qRT-PCR, Nanostring technology, microarray technology, or RNA-seq technology to study transcript changes following treatment with compound. ChIP analysis can be performed on the factor of interest to study if compound treatment alters its genomic occupancy. Cellular proliferation and cell state analysis can indicate if the compound alters cell cycle progression or cellular identity. Thus, the approach using biochemical and cellular assays with large chemical libraries or focused libraries of hits identified in high throughput screens can serve as a platform to develop inhibitors of transcription factor function.

[1] = class symbols, NA: not active under assay conditions, read-out: Myc/Max IC50
[2] = c-Myc/Max/Ebox DNA AlphaScreen, NA: inactive under assay conditions, read-out: Biochemical IC50

c-Myc/Max/Ebox DNA, sequence (P01106 16-454): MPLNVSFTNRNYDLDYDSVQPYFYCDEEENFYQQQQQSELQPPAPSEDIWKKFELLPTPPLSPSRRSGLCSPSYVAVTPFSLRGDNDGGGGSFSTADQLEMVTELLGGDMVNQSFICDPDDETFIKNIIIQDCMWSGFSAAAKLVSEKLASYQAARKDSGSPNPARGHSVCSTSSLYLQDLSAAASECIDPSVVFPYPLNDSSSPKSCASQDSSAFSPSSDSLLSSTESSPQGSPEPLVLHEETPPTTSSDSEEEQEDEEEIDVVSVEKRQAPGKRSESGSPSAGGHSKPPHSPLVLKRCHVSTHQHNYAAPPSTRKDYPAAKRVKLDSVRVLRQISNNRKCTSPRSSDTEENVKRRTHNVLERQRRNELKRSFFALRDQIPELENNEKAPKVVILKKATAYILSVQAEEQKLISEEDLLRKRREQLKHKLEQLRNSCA

Row | Compound | EC50 (Jurkat cells; Homo sapiens, Jurkat) | IC50 (c-Myc/Max/Ebox DNA; [1]) | further results
1 | Cc1ccc(C)n1-c1ccccc1C(=O)O [Compound 1] | ≥ 100 µM | 10 to 100 µM | EC50 (H2171 cells): 93.5 µM; EC50 (MM1S cells): 132 µM
2 | Cc1ccc(C)n1-c1cc(C(=O)N/N=C/c2ccc(-c3nnn[nH]3)cc2)ccc1C(=O)O [Compound 92] | – | – | EC50 (MM1S cells; Homo sapiens, MM1.S, 72 h): 731 µM; MITF/MITF/Ebox DNA complex formation (MITF/MITF/Ebox DNA): most potent of the compounds tested; IC50 (c-Myc/Max/Ebox DNA; [2]): 1.66 µM
3 | Cc1ccc(C)n1-c1ccccc1-c1nnn[nH]1 [Compound 162] | ≥ 100 µM | ≥ 100 µM | EC50 (H2171 cells; Homo sapiens, NCI-H2171, 72 h): 24.2 µM; EC50 (MM1S cells; Homo sapiens, MM1.S, 72 h): 66 µM; IC50 (c-Myc/Max/Ebox DNA; [2]): 151 µM
4 | Cc1ccc(C)n1-c1cc(C(=O)N2CCN(c3cccc(C(=O)O)c3)CC2)ccc1C(=O)O [Compound 195] | ≥ 100 µM | < 1 µM | –
5 | Cc1ccc(C)n1-c1cc(CNCc2cccc(C(=O)O)c2)ccc1C(=O)O [Compound 196] | ≥ 100 µM | 1 to 10 µM | –
6 | O=C(O)c1ccccc1-n1c(Br)ccc1C(F)(F)F [Compound 197] | ≥ 100 µM | 10 to 100 µM | –
7 | Cc1ccc(C)n1-c1cc(C(=O)N2CCN(c3ccccc3C(=O)O)CC2)ccc1C(=O)O [Compound 198] | ≥ 100 µM | 1 to 10 µM | –
8 | Cc1ccccc1C1CCCN(C(=O)c2ccc(C(=O)O)c(-n3c(C)ccc3C)c2)C1 (stereo not shown) [Compound 200] | 10 to 100 µM | ≥ 100 µM | –
9 | Cc1ccc(C)n1-c1cc(C(=O)N2CCC=C(c3ccc(C(=O)O)cc3)C2)ccc1C(=O)O [Compound 202] | 10 to 100 µM | 10 to 100 µM | –
10 | Cc1ccc(C)n1-c1cc(C(=O)N2CCCC(c3ccc(C(=O)NS(C)(=O)=O)cc3)C2)ccc1C(=O)O (stereo not shown) [Compound 205] | ≥ 100 µM | 1 to 10 µM | –
11 | Cc1ccc(C)n1-c1cc(C(=O)N2CCCC(c3ccccc3O)C2)ccc1C(=O)O (stereo not shown) [Compound 207] | ≥ 100 µM | 10 to 100 µM | –
12 | Cc1ccc(C)n1-c1cc(C(=O)N2CCCC(c3ccc(CC(=O)O)cc3)C2)ccc1C(=O)O (stereo not shown) [Compound 208] | 10 to 100 µM | 1 to 10 µM | –
13 | Cc1ccc(C)n1-c1cc(C(=O)N2CCCC(c3ccc(C(=O)O)cc3)C2)ccc1C(=O)O (stereo not shown) [Compound 209] | – | 10 to 100 µM | EC50 (Jurkat cells): ≥ 100 µM
14 | Cc1ccc(C)n1-c1cc(C(=O)N2CCCC(c3ccc(C(=O)O)cc3)C2)ccc1C(=O)O (stereo not shown) [Compound 210] | – | 10 to 100 µM | EC50 (Jurkat cells): ≥ 100 µM
15 | COC(=O)c1ccc(C(=O)NN)cc1-n1c(C)ccc1C [Compound 211] | ≥ 100 µM | ≥ 100 µM | –
16 | COc1ccccc1C(=O)N1CCN(C(=O)c2ccc(C(=O)O)c(-n3c(C)ccc3C)c2)CC1 [Compound 213] | ≥ 100 µM | ≥ 100 µM | –
17 | Cc1cnc(C(=O)N2CCN(C(=O)c3ccc(C(=O)O)c(-n4c(C)ccc4C)c3)CC2)cn1 [Compound 215] | ≥ 100 µM | 10 to 100 µM | –
18 | COc1ccc(C(=O)N2CCN(C(=O)c3ccc(C(=O)O)c(-n4c(C)ccc4C)c3)CC2)cc1 [Compound 218] | 10 to 100 µM | 10 to 100 µM | –
19 | Cc1ccc(C)n1-c1cc(-c2nnc(-c3ccc(OCc4ccccc4)c(OCc4ccccc4)c3OCc3ccccc3)o2)ccc1C(=O)O [Compound 219] | < 10 µM | 1 to 10 µM | –
20 | COc1cccc(C(=O)N2CCN(C(=O)c3ccc(C(=O)O)c(-n4c(C)ccc4C)c3)CC2)c1 [Compound 220] | ≥ 100 µM | 10 to 100 µM | –
21 | Cc1ccc(C)n1-c1cc(-c2nnc(-c3ccc(O)c(O)c3O)o2)ccc1C(=O)O [Compound 224] | < 10 µM | < 1 µM | –
22 | COc1cccc([C@H]2CN(C(=O)c3ccc(C(=O)O)c(-n4c(C)ccc4C)c3)C[C@@H]2O)c1 [Compound 225] | 10 to 100 µM | ≥ 100 µM | –
23 | Cc1ccc(C)n1-c1cc(C(=O)N2CCN(C(=O)c3cncc(F)c3)CC2)ccc1C(=O)O [Compound 226] | ≥ 100 µM | 10 to 100 µM | –

The next lines start with results.

Row | EC50 (Jurkat cells; Homo sapiens, Jurkat) | IC50 (c-Myc/Max/Ebox DNA; [1]) | Compound | further results
24 | ≥ 100 µM | 1 to 10 µM | Cc1ncc(CO)c(/C=N/NC(=O)c2ccc(C(=O)O)c(-n3c(C)ccc3C)c2)c1O [Compound 80] | EC50 (H2171 cells; Homo sapiens, NCI-H2171, 72 h): 400 µM
25 | 10 to 100 µM | 1 to 10 µM | Cc1ccc(C)n1-c1cc(C(=O)N2CCN(c3ccc(C(=O)O)cc3)CC2)ccc1C(=O)O [Compound 199] | –
26 | 10 to 100 µM | 10 to 100 µM | Cc1ccc(C)n1-c1cc(C(=O)N2CCCC(c3ccc(Cl)cc3)C2)ccc1C(=O)O (stereo not shown) [Compound 201] | –
27 | ≥ 100 µM | < 1 µM | Cc1ccc(C)n1-c1cc(C(=O)N2CCCC(c3ccccc3C(=O)O)C2)ccc1C(=O)O (stereo not shown) [Compound 203] | –
28 | 10 to 100 µM | 10 to 100 µM | Cc1ccc(C)n1-c1cc(C(=O)N2CCC=C(c3cccc(C(=O)O)c3)C2)ccc1C(=O)O [Compound 204] | –
29 | 10 to 100 µM | 10 to 100 µM | Cc1ccc(C)n1-c1cc(-c2nnc(-c3ccc(C(=O)O)cc3)o2)ccc1C(=O)O [Compound 206] | –
30 | 10 to 100 µM | 10 to 100 µM | Cc1cccc(C2CCCN(C(=O)c3ccc(C(=O)O)c(-n4c(C)ccc4C)c3)C2)c1 (stereo not shown) [Compound 212] | –
31 | 10 to 100 µM | ≥ 100 µM | Cc1ccc(C)n1-c1cc(Br)ccc1C(=O)NS(C)(=O)=O [Compound 214] | –
32 | ≥ 100 µM | 10 to 100 µM | Cc1ccc(C)n1-c1cc(C(=O)N2CCN(C(=O)c3cccnc3)CC2)ccc1C(=O)O [Compound 216] | –
33 | ≥ 100 µM | 10 to 100 µM | Cc1ccc(C)n1-c1cc(C(=O)N2C[C@H](c3ccccc3)[C@@H](O)C2)ccc1C(=O)O [Compound 217] | –
34 | ≥ 100 µM | 10 to 100 µM | Cc1ccc(C)n1-c1cc(C(=O)N2CCCC(c3ccc(C(=O)O)cc3)C2)ccc1C(=O)NS(C)(=O)=O (stereo not shown) [Compound 221] | –
35 | 10 to 100 µM | 10 to 100 µM | Cc1ccc(C)n1-c1cc(-c2nnc(-c3cccc(C(=O)NS(C)(=O)=O)c3)o2)ccc1C(=O)O [Compound 222] | –
36 | ≥ 100 µM | 10 to 100 µM | Cc1ccc(C)n1-c1cc(C(=O)O)ccc1C(=O)NS(C)(=O)=O [Compound 223] | –
